# Legend:
# HIV 115-mer PCR product = assay: Photoproduct sterilization of PCR (HIV 115-mer carryover); type: biochemical; settings: 30 cycles; for sterilization of PCR (Example 52): 100 μl/ml
# Source text: FIG. 36 describes a series of oligonucleotides that can be used with the PCR amplification technique. Two primers are described (SK-38 and SK-39) that are complementary to a segment of the HIV genome. Each primer is complementary to sequences at the […] of one of each of two strands of a 115 base pair long segment of the HIV genome. In addition, FIG. 36 describes a crosslinkable probe molecule which is capable of hybridizing and crosslinking to one strand of the 115-mer PCR product. Repeated thermal cycling of SK-38 and SK-39 in the presence of Taq polymerase, appropriate reagents, and a target polynucleotide containing at least the 115-mer segment bounded by SK-38/SK-39, will result in the synthesis of both strands of the 115-mer. Therefore, PCR amplification will occur, with both strands of the 115-mer accumulating geometrically. This is in contrast to the oligonuceleotides described in FIG. 26. Only one primer (SK-39) is described in FIG. 26 which is capable hybridizing to the 3′ end of the 71-mer target oligonucleotide (HRI-55). The lack of a second primer in the system of oligonucleotides described by FIG. 26 prevents this system from being amplified geometrically. Repeated thermal cycling of HRI-55 and SK-39 in the presence of Taq polymerase and appropriate reagents will result in the linear accumulation of the complement of HRI-55.
# […] Aliquots of AMDIIIP photoproduct and the unirradiated compound were added (by pipetting) at 50, 100, 200 and 300 μg/ml to 1 μl aliquots of a 10^6 delution of PCR product copies. PCR product was provided by a) preparing template, b) providing template, c) providing PCR reagents, d) providing polymerase, e) mixing PCR reagents, template, and polymerase to initiate PCR, f) cycling to synthesize PCR product.
# Step a): Template Preparation. The templates were derived from actual patient samples. Ficoll-Hypaque separated peripheral blood mononuclear cells (PBMCs) are prepared from individuals enrolled in a longitudinal AIDS study. Approximately 1×10^6 cells are added to 10 ml of RPMI containing 10% fetal calf serum. The cells are pelleted by centrifugation at 20×g for 5 minutes and washed twice with 10 ml PBS. The cell pellet is resuspended in a solution of 50 mM KCl, 10 mM Tris-HCl (pH 8.3), 2.5 mM MgCl2 and subsequently lysed by the addition of 0.5% Tween 20 and 0.5% NP40. Samples are digested with 60 μg/ml proteinase K (Sigma) for 1 hour at 60° C. […]
# Again, to evaluate the efficacy of this method of sterilization, a subsequent polymerase chain reaction was carried out for 30 cycles in the presence of α-^32P-dCTP. PCR product was then quantitated by running gels (see above), cutting the bands (detected by autoradiography) and counting the bands on a commercial scintillation counter. […]
# [1] = system: Molt-4 human genomic DNA (human beta globin gene); assay: Sterilization of genomic target before PCR (beta globin 174 bp); type: biochemical
# Procedure: Four samples containing 1 μg of Molt-4 human genomic DNA target were prepared for PCR with primers KM 29 (5′-[…]) and HRI-12 (5′-[…]). These primers give a 174 bp product within the human beta globin gene. All four samples contained AMDMIP at 100 μg/ml, and were irradiated for 0, 5, 10 or 15 minutes prior to PCR amplification. […] Amplification were carried out in 1×Taq buffer (50 mM KCl, 10 mM Tris pH 8.5, 2.5 mM MgCl2, 200 μg/ml gelatin), 175 μM each dNTP, 20 μM primer with 2.5 units of Taq polymerase and 100 μg/ml AMDMIP present during amplification. PCR was carried out for 30 cycles; one cycle=30 sec at 94° C. (denaturing), 30 sec at 55° C. (primer annealing), and 60 sec at 72° C. (extension). α-[…] was used as an internal label. After amplification, the samples were analyzed for product by PAGE followed by autoradiography.
smiles,measurement,setting,value
"Cc1oc2ccc3c(C)cc(=O)oc3c2c1CN [AMDMIP, 4′-Aminomethyl-4,5′-dimethylisopsoralen]",sterilization of PCR (Example 52),HIV 115-mer PCR product; AMDMIP irradiated in CE-III device 15 minutes,extensive sterilization
same,sterilization of PCR (Example 52),HIV 115-mer PCR product; AMDMIP irradiated in PTI device 15 minutes,little sterilization
same,sterilization of PCR (Example 52),HIV 115-mer PCR product; unirradiated AMDMIP,PCR product is clearly evident
same,sterilization of PCR,"HIV 115-mer PCR product; unirradiated compound at 50, 100, 200, 300 μg/ml",no sterilization
same,impact of unirradiated AMDMIP on amplification,[1]; 100 μg/ml (data not shown),no significant impact on amplification
same,amplification of genomic target irradiated in presence of AMDMIP,"[1]; AMDMIP 100 μg/ml, irradiated 0, 5, 10 or 15 minutes before PCR, 30 cycles",no amplification of the sterilized genomic target

# — patent publication US6680025B2, “Device and method for photoactivation” (Cerus Corporation, priority 1989, dated 2004)
